According to patent US4672058A, “N[[5-(trifluoromethyl)-6-methoxy-1-naphthalenyl]-thioxomethyl]-N -methylglycinamides” (American Home Products Corporation, priority 1985, dated 1987):

Columns and labels:
aldose reductase = details: literature, in words; cited from earlier work
accumulation of dulcitol = assay: Lowering of dulcitol accumulation in lens, sciatic nerve and diaphragm of galactosemic rats (in vivo); parameters: species or system rat (Sprague-Dawley, male); details: for % lowering dulcitol accumulation in vivo, D: diaphragm
Excerpt: Such experiments are exemplified hereinbelow after the listing of the following general comments pertaining to these experiments:
(a) Four or more groups of six male rats, 50-70 g, Sprague-Dawley strain, were used. The first group, the control group, was fed a mixture of laboratory chow (rodent Laboratory Chow, Purina) and glucose at 20% (w/w %) concentration. The untreated galactosemic group was fed a similar diet in which galactose is substituted for glucose. The third group was fed a diet prepared by mixing a given amount of the test compound with the galactose containing diet. The concentration of galactose in the diet of the treated groups was the same as that for the untreated galactosemic group.
(b) After four days, the animals were killed by decapitation. The eyeballs were removed and punctured with a razor blade; the freed lenses were rolled gently on filter paper and weighed. The sciatic nerves were dissected as completely as possible and weighed. Both tissues when frozen can be kept up to two weeks before being analyzed for dulcitol.
(c) The polyol determination was performed by a modification of the procedure of M. Kraml and L. Cosyns, Clin. Biochem., 2,373 (1969). Only two minor reagent changes were made: (a) The rinsing mixture was an aqueous 5% (w/v) trichloroacetic acid solution and (b) the stock solution was prepared by dissolving 25 mg of dulcitol in 100 ml of an aqueous trichloroacetic acid solution. [N.B.: For each experiment the average value found in the tissue from rats fed the glucose diet was subtracted from the individual values found in the corresponding tissue in galactose-fed rats to obtain the amount of polyol accumulated.] […] In the present case the procedure of Hayman and Kinoshita was modified in that the final chromatography step was omitted in the preparation of the enzyme from bovine lens.
The figures under L, N and D represent the percentage decrease of dulcitol accumulation in the tissues of the lens, sciatic nerve and diaphragm, respectively, for treated rats as compared to untreated rats.

## O=C(O)CN1C(=O)c2cccc3cccc(c23)C1=O [1,3-Dioxo-1H-benz[de]isoquinoline-2(3H)-acetic acid]
Aldose reductase
  inhibition of aldose reductase, as reported: effective inhibitor of aldose reductase

## COc1ccc2c(C(=S)N(C)CC(N)=O)cccc2c1C(F)(F)F [Compound 1, N-[[5-(trifluoromethyl)-6-methoxy-1-naphthalenyl]-thioxomethyl]-N-methylglycinamide]
Accumulation of dulcitol; 5 mg/kg/day in diet, 4 days
  % lowering dulcitol accumulation in vivo, D: 66%
Accumulation of dulcitol; dose of 5 mg/kg/day, in words
  results compared with N-[[5-(trifluoromethyl)-6-methoxy-1-naphthalenyl]-thioxomethyl]-N-methylglycine (tolrestat): comparable results

## COc1ccc2c(C(=S)N(C)CC(=O)N(C)C)cccc2c1C(F)(F)F [Compound 3, 2-[[[6-Methoxy-5-(trifluoromethyl)-1-naphthalenyl]thioxomethyl]methylamino]-N,N-dimethylacetamide]
Accumulation of dulcitol; 55 mg/kg/day in diet, 4 days
  % lowering dulcitol accumulation in vivo, D: 85%

## COC(=N)NC(=O)CN(C)C(=S)c1cccc2c(C(F)(F)F)c(OC)ccc12 [Compound 4, N-[[[[5-(Trifluoromethyl)-6-methoxy-1-naphthalenyl]thioxomethyl]methylamino]acetyl]carbamimidic Acid, Methyl Ester]
Accumulation of dulcitol; 26 mg/kg/day in diet, 4 days
  % lowering dulcitol accumulation in vivo, D: 76%
Accumulation of dulcitol; lens, 26 mg/kg/day in diet, 4 days
  % lowering dulcitol accumulation in vivo, L: 13%

## COc1ccc2c(C(=S)N(C)CC(=O)NC(N)=O)cccc2c1C(F)(F)F [Compound 5, [[[5-(Trifluoromethyl)-6-methoxy-1-naphthalenyl]thioxomethyl](methylamino)acetyl]urea]
Accumulation of dulcitol; 23 mg/kg/day in diet, 4 days
  % lowering dulcitol accumulation in vivo, D: 64%

## COC(=O)NC(=O)CN(C)C(=S)c1cccc2c(C(F)(F)F)c(OC)ccc12 [Compound 6, [[[5-(Trifluoromethyl)-6-methoxy-1-naphthalenyl]thioxomethyl](methylamino)acetyl]carbamic acid, Methyl Ester]
Accumulation of dulcitol; 8.4 mg/kg/day in diet, 4 days
  % lowering dulcitol accumulation in vivo, D: 69%
Accumulation of dulcitol; 26 mg/kg/day in diet, 4 days
  % lowering dulcitol accumulation in vivo, D: 88%

## COc1ccc2c(C(=S)N(C)CC(=O)N[C@H]3C(O)O[C@H](CO)[C@@H](O)[C@@H]3O)cccc2c1C(F)(F)F (stereo partly drawn) [Compound 7, 2-Deoxy-2-[[[[[6-methoxy-5-(trifluoromethyl)-1-naphthalenyl]thioxomethyl]methylamino]acetyl]amino]-D-glucose]
Accumulation of dulcitol; 161 mg/kg/day in diet, 4 days
  % lowering dulcitol accumulation in vivo, D: 37%

## O=C1NC(=O)[C@@]2(CCOc3ccc(F)cc32)N1 [sorbinil, (S)-6-Fluoro-2,3-dihydrospiro(4H-1-benzopyran-4,4'-imidazolidine)-2',5'-dione]
Aldose reductase
  inhibition of aldose reductase, as reported: aldose reductase inhibiting properties
